In patent USRE48461E1, “Modulation of androgen receptor expression” (Ionis Pharmaceuticals, Inc., priority 2012, dated 2021):
e = 2'-O-(2-methoxyethyl) (MOE); d = 2'-deoxy (DNA)

Tests used:
Format in all cases: cell-based, human
[1] = system: total AR mRNA; experiment: Total (full-length) AR mRNA in C4-2B MR cells, free uptake; settings: free uptake, 24 hrs
Description: Cells were plated at a density of 40,000 cells per well in 96-well plates and cultured in RPMI1640 medium with 10% fetal bovine serum. […] ISIS 549372, ISIS 549458, ISIS 549434, and ISIS 554221 were each added at 0.04 μM, 0.20 μM, 1.00 μM, and 5.00 μM concentrations of antisense oligonucleotide to culture media for free uptake by the cells. […] After a treatment period of 24 hrs, total AR mRNA levels were measured by quantitative real-time PCR using primer probe set RTS3559.

[2] = system: C4-2B MR cells; experiment: Proliferation of MDV3100-resistant C4-2B cells (CellTiter 96); settings: 6 days
Description: ISIS 549372, ISIS 549434, ISIS 549458, and ISIS 554221 were each added to the culture media at 0.04 μM, 0.20 μM, 1.00 μM, and 5.00 μM concentration of antisense oligonucleotide. ISIS 347526 was included as a negative control. After a treatment period of 6 days, the proliferative capacity of the cancer cells was measured with using CellTiter 96® AQueous One Solution Cell Proliferation kit (Promega), following the manufacturer's instructions. Results are presented in Table 41 as percent inhibition of proliferation, relative to non-treated cells.

[3] = system: KLK3 mRNA; experiment: KLK3 mRNA (AR target gene) in C4-2B MR cells
[4] = system: KLK2 mRNA; experiment: KLK2 mRNA (AR target gene) in C4-2B MR cells

Substance: 347526 (TCTTATGTTTCCGAACCGTT; sugars from the 5' end e5 d10 e5, backbone and methylation of C not given here) [compound 347526]
- Percent inhibition of full-length AR mRNA in C4-2B MR cells ([1]; 0.04 μM): 28%
- Percent inhibition of full-length AR mRNA in C4-2B MR cells ([1]; 0.20 μM): 35%
- Percent inhibition of full-length AR mRNA in C4-2B MR cells ([1]; 1.00 μM): 31%
- Percent inhibition of full-length AR mRNA in C4-2B MR cells ([1]; 5.00 μM): 17%
- Percent inhibition of C4-2B MR cell proliferation ([2]; 0.04 μM): 11%
- Percent inhibition of C4-2B MR cell proliferation ([2]; 0.20 μM): 22%
- Percent inhibition of C4-2B MR cell proliferation ([2]; 1.00 μM): 7%
- Percent inhibition of C4-2B MR cell proliferation ([2]; 5.00 μM): 16%
- Percent inhibition of KLK3 mRNA in C4-2B MR cells ([3]; 0.04 μM): 5%
- Percent inhibition of KLK3 mRNA in C4-2B MR cells ([3]; 0.20 μM): 38%
- Percent inhibition of KLK3 mRNA in C4-2B MR cells ([3]; 1.00 μM): 42%
- Percent inhibition of KLK3 mRNA in C4-2B MR cells ([3]; 5.00 μM): 16%
- Percent inhibition of KLK2 mRNA in C4-2B MR cells ([4]; 0.04 μM): 28%
- Percent inhibition of KLK2 mRNA in C4-2B MR cells ([4]; 0.20 μM): 29%
- Percent inhibition of KLK2 mRNA in C4-2B MR cells ([4]; 1.00 μM): 23%
- Percent inhibition of KLK2 mRNA in C4-2B MR cells ([4]; 5.00 μM): 22%
